Patent publication US8263615B2, “Bis-heterocyclic imidazolyl compounds” (Novartis AG, priority 2005, dated 2012)

system: plasma aldosterone; test: in vivo suppression of plasma aldosterone levels in ACTH-stimulated rats; parameters: species or system Wistar rats; conditions: rat plasma, 4 mg/kg p.o., 2 h after dosing vs 1 h before dosing
Experimental: (§1) The aldosterone- and corticosterone-suppressing activity of herein described compounds may be assessed with the following in vivo protocol.
(§2) Adult male Wistar rats weighing between 250 and 350 grams are kept under the usual 12 hour light and 12 hour dark conditions at a temperature of 23° C.±2° C. On the first day of the experiment, the animals receive a subcutaneous injection of a depot ACTH product in a dose of 1.0 mg/kg weight (SYNACTEN-Depot, Novartis, Basel, CH) 16 hours prior to the administration of a test compound. […] An alternative method to stimulate aldosterone secretion consists in subjecting rats to a low salt diet for 48 hours and applying the diuretic furosemide at 10 mg/kg by subcutaneous or intraperitoneal administration 16 hours, respectively 2 hours prior to the start of the experiment. On the second day of the experiment, the animals are divided into test groups of 5 animals and subjected to a first bleed 1 hour prior to the administration of test compound. Subsequently, and 16 hours after the injection of the ACTH product, the animals receive either vehicle or test compound dissolved in vehicle in a variable dose range from 0.02 to 20 mg/kg by oral gavage. The animals are bled two more times from the vena subclavia under isoflurane anesthesia 2 and 6 hours after dosing. The blood is collected in heparin-treated tubes. The plasma samples are obtained by centrifugation and stored at −20° C. An alternative method to bleed animals time-dependently consists in using animals that are chronically carotid catheterized which allows the periodical sampling of up to 0.2 ml of blood using an AccuSampler (DiLab Europe, Lund, Sweden). The blood sampling with the AccuSampler may occur 1 hour prior to the administration of a test compound and 2, 4, 6, 8, 12, 16 and 24 hours thereafter. The blood samples are anti-coagulated with heparin and centrifuged. The aldosterone and corticosterone concentrations of the plasma samples can be determined with a radioimmunoassay as described above for the in vitro test systems.
(§3) The selective suppression of plasma steroid levels as for instance aldosterone in comparison to corticosterone may serve as a measure for in vivo bioavailability and pharmacodynamic enzyme inhibitory activity of the herein described compounds. The evaluation of the data may occur relative to the application of vehicle or quantitatively by determination of the area under the curve (AUC).

Compared with Fc1ccc(C2CCn3cncc32)cc1F (stereo not shown) [Example 2, 7-(3,4-Difluorophenyl)-6,7-dihydro-5H-pyrrolo[1,2-c]imidazole], CC(=O)c1ccc(C2CCn3cncc32)cc1 (stereo not shown) [Example 3, 1-[4-(6,7-Dihydro-5H-pyrrolo[1,2-c]imidazol-7-yl)phenyl]ethanone] is lower in “Aldosterone levels (% change at 2 h)” value: −49% for the first, −53% for the second.

Compared with CSc1ccc(C2CCCn3cncc32)cc1 (stereo not shown) [Example 12, 8-(4-Methylsulphanylphenyl)-5,6,7,8-tetrahydroimidazo[1,5-a]pyridine], O=[N+]([O-])c1ccccc1C1CCCn2cncc21 (stereo not shown) [Example 13, 8-(2-Nitrophenyl)-5,6,7,8-tetrahydroimidazo[1,5-a]pyridine] is lower in “Aldosterone levels (% change at 2 h)” value: −61% for the first, −62% for the second.

For CC1(C)CCn2cncc2C1c1ccc(C#N)cc1 (stereo not shown) [Example 16, 4-(7,7-Dimethyl-5,6,7,8-tetrahydroimidazo[1,5-a]pyridin-8-yl)benzonitrile], the “Aldosterone levels (% change at 2 h)” value was −21%.

system: plasma corticosterone; test: in vivo suppression of plasma corticosterone levels in ACTH-stimulated rats; parameters: species or system Wistar rats; conditions: rat plasma, 4 mg/kg p.o., 2 h after dosing vs 1 h before dosing
Experimental: as §1, §2, §3

Compared with Fc1ccc(C2CCn3cncc32)cc1F (stereo not shown) [Example 2, 7-(3,4-Difluorophenyl)-6,7-dihydro-5H-pyrrolo[1,2-c]imidazole], CC(=O)c1ccc(C2CCn3cncc32)cc1 (stereo not shown) [Example 3, 1-[4-(6,7-Dihydro-5H-pyrrolo[1,2-c]imidazol-7-yl)phenyl]ethanone] is higher in “Corticosterone levels (% change at 2 h)” value: −32% for the first, −13% for the second.

Going from CSc1ccc(C2CCCn3cncc32)cc1 (stereo not shown) [Example 12, 8-(4-Methylsulphanylphenyl)-5,6,7,8-tetrahydroimidazo[1,5-a]pyridine] to O=[N+]([O-])c1ccccc1C1CCCn2cncc21 (stereo not shown) [Example 13, 8-(2-Nitrophenyl)-5,6,7,8-tetrahydroimidazo[1,5-a]pyridine], the “Corticosterone levels (% change at 2 h)” value falls from 2% to 0%.

With CC1(C)CCn2cncc2C1c1ccc(C#N)cc1 (stereo not shown) [Example 16, 4-(7,7-Dimethyl-5,6,7,8-tetrahydroimidazo[1,5-a]pyridin-8-yl)benzonitrile] the “Corticosterone levels (% change at 2 h)” value was −3%.
